Assay results published in paper PMC9546217, “Exploring novel nitrofuranyl sulfonohydrazides as anti‐Leishmania and anti‐cancer agents: Synthesis, in vitro efficacy and hit identification” (Chemical Biology & Drug Design, 2022).
Where two headings read alike, the source gives them in different places.

Assays:
[1] = system: L. major strain IR‐173 amastigotes; assay: Anti-amastigote assay (intramacrophage, THP-1 host, resazurin); format: cell-based; details: for IC50: read-out: Antileishmanial activity, IC50 ± SD, Amastigote
Description: (§1) The activities of synthesized compounds against the intramacrophage parasites of the three Leishmania strains were evaluated using a modified, resazurin‐based method (Jain et al., [2012]; Njanpa et al., [2021]). Suspension cultures of human acute monocytic leukemia (THP‐1) cells were maintained in RPMI‐1640 medium (Sigma Aldrich) supplemented with 10% FBS and 1% penicillin–streptomycin, at 37°C and 5% CO2 in a humidified atmosphere. Duplicate 96‐well plates (for respective anti‐amastigote and cytotoxicity assays) were seeded with 200 μl of a 2.5 × 10^5 cells/ml suspension treated with 25 ng/ml phorbol 12‐myristate 13‐acetate (PMA), followed by 48‐h incubation to promote differentiation into adherent macrophages.
(§2) For the anti‐amastigote assay, differentiated plates were carefully washed with PBS, followed by the addition of 200 μl of stationary phase promastigotes in RPMI 1640 medium with 2% FBS. An MOI of 30:1 was used for all three Leishmania strains. The parasite‐treated plates were incubated for 24 h at 32°C (L. major) or 37°C (L. donovani) and 5% CO2 to promote infection of the macrophages. […] Blanks were represented by growth medium without cells, as well as parasite‐free THP‐1 cells. The treated plates were incubated for 72 h.
(§3) After incubation, the plates were gently washed three times with PBS to remove any remaining extracellular parasites. The wells were then treated with 20 μl of 0.05% sodium dodecyl sulfate in PBS for 30 s to lyse the host macrophages. Lysis was terminated by adding 180 μl promastigote growth medium with 10% FBS. To initiate the resazurin assay, 10 μl of resazurin solution (0.025% in PBS) was added to all wells and the plates were incubated for 24 h at 32°C (L. major) or 37°C (L. donovani) and 5% CO2. Absorbance measurements, calculations, and IC50 determinations were performed as described for the antipromastigote assay (Supinfo S1).

[2] = system: L. donovani strain 1S amastigotes; assay: as above; format: cell-based; details: for IC50: L. donovani 1S, read-out: 1S IC50 ± SD, Amastigote
Description: as §1, §2, §3

[3] = system: L. donovani strain 9515 amastigotes; assay: as above; format: cell-based; details: for IC50: L. donovani 9515, read-out: 9515 IC50 ± SD, Amastigote
Description: as §1, §2, §3

[4] = system: L. major strain IR‐173 promastigotes; assay: Antipromastigote assay (resazurin); format: cell-based; details: L. major IR‐173, read-out: Antileishmanial activity, IC50 ± SD, Promastigote
Description: (§4) The antipromastigote activity of synthesized compounds was evaluated as described previously by Mangwegape et al. ([2021]) using three strains of L. donovani (1S (MHOM/SD/62/1S) and 9515 (MHOM/IN/95/9515)) and L. major (IR‐173 [MHOM/IR/−173]). The assay method is available in the Supinfo S1.
(§5) The antipromastigote activity of synthesized compounds was evaluated using a modified, resazurin-based method of Kulshrestha et al. ^2 and Siqueira-Neto et al. ^3 and on three Leishmania strains. Leishmania donovani (strains 1S (MHOM/SD/62/1S) and 9515 (MHOM/IN/95/9515)) and L. major (strain IR-173 (MHOM/IR/-173)) promastigotes were cultured in M199 with Hank's salts and 0.68 mM L-glutamine (Sigma Aldrich) supplemented with 50 U/mL Penicillin/Streptomycin solution (Lonza), 4.2 mM sodium bicarbonate, 25 mM Hepes, 10% fetal bovine serum, 0.25% hemin, 0.1% biotin, and 10 mM adenine (Sigma Aldrich) and the pH adjusted to 7.3 – 7.4. The promastigotes were maintained at 25 °C.
(§6) Amphothericin B (10 μM) served as the standard drug and growth medium without parasites served as the blank. The plates were incubated for 48 hours at 25 °C in humidified atmosphere. After incubation, 50 μL of resazurin solution (0.01% in PBS) was added to each well and the plates were further incubated at 25 °C in the dark for 24 hours. Absorbance was measured at 570 nm and 600 nm using the Thermofisher Scientific GO Multiscan plate reader. Data analysis was performed for each biological replicate using SkanIt 4.0 Research Edition software. Background absorbance of resazurin (600 nm) was subtracted from the absorbance values of resorufin (570 nm). The mean absorbance calculated and the percentage growth inhibition and cell viability were determined by the following equations: […]
(§7) The IC50 and Z-score were determined for each compound’s three biological replicates using the cell viability % values and GraphPad Prism 5. The mean IC50 of the biological replicates with standard deviation (SD) served as the final IC50 of each compound.

[5] = system: L. donovani strain 1S promastigotes; assay: Antipromastigote assay (resazurin); format: cell-based; details: L. donovani 1S, read-out: 1S IC50 ± SD, Promastigote
Description: as §4, §5, §6, §7

in vitro = details: African green monkey
Description: (§8) The assay method is available in the Supinfo S1.
(§9) African green monkey kidney epithelial (Vero) cells (Cellonex, South Africa) were cultured and the basal cytotoxicity of the synthesized compounds with antileishmanial and/or anticancer activity was evaluated using the resazurin assay, as described in Mangwegape et al. ^4 Emetine served as the standard cytotoxic drug. Further use of reference drugs, controls, data analysis, calculations and IC50 determinations were identical to that of the antileishmanial assay.

Vero cells = assay: Basal cytotoxicity, resazurin assay; details: read-out: Cytotoxicity, IC50 ± SD, Vero; Vero cells
Description: as §8, §9

[6] = system: L. donovani strain 9515 promastigotes; assay: Antipromastigote assay (resazurin); format: cell-based; details: L. donovani 9515, read-out: 9515 IC50 ± SD, Promastigote
Description: as §4, §5, §6, §7

[7] = Cytotoxicity on differentiated host THP-1 macrophages, resazurin assay; format: cell-based, human; details: human, PMA-differentiated THP-1 macrophages, read-out: Cytotoxicity, IC50 ± SD, THP‐1
Description: Duplicate 96‐well plates (for respective anti‐amastigote and cytotoxicity assays) were seeded with 200 μl of a 2.5 × 10^5 cells/ml suspension treated with 25 ng/ml phorbol 12‐myristate 13‐acetate (PMA), followed by 48‐h incubation to promote differentiation into adherent macrophages.
Cytotoxicity of the compounds on the differentiated host THP-1 cells were also evaluated. As mentioned, duplicate plates of differentiated THP-1 cells were prepared during the anti-amastigote assay. These plates were incubated for 72 hours to differentiate, instead of replacing the growth medium with parasite-containing medium after 48 hours. […] Blanks were growth medium without cells. The treated plates were incubated for 72 hours, followed by the addition of 50 μL of resazurin solution (0.01% in PBS) to each well and 24-hour incubation.

A375 melanoma cells = assay: Anticancer assay (resazurin); format: cell-based, human; details: n = 3; read-out: Anticancer activity, IC50 ± SD, A375
Description: (§10) The anticancer activities of synthesized compounds were evaluated using a resazurin‐based assay (Czekanska, [2011]). Accordingly, a screening method similar to that of the cytotoxicity assay was used to screen for anticancer activity, using human melanoma (A375), promyelocytic leukemia (Clone 15 HL‐60), lung cancer (A549), and breast cancer (MCF7) cells. The culture and assay methods are provided in the Supinfo S1.
(§11) The potential anticancer activities of synthesized compounds were screened using the resazurin assay. ^5 Breast adenocarcinoma (MCF7, ATCC® HTB-22™) and human melanoma (A375, ATCC® CRL-1619™) cells were cultured in Hyclone Dulbecco's modified Eagle’s medium with high glucose (Separations) supplemented with 10 % fetal bovine serum (FBS) (Thermofisher Scientific) and 1 % L-glutamine, penicillin-streptomycin and non-essential amino acids (Lonza). Human lung carcinoma (A549, ATCC®, CCL-185™) cells were cultured in Ham’s F12K medium supplemented with 10% FBS and 1% L-glutamine, penicillin-streptomycin and non-essential amino acids. Human promyelocytic leukemia (Clone 15 HL-60, ATCC® CRL-1946™) cells were cultured in RPMI-1640 medium (Sigma Aldrich) supplemented with 10% FBS and 1% penicillin-streptomycin. The cell lines were maintained in a humidified atmosphere at 37 °C and 5% CO2.
(§12) For the resazurin assay, 96 well plates were prepared with 100 μL of 100 000 cells/mL MCF7 cell suspension, 100 μL of 50 000 cells/mL A375 cell suspension, 100 μL of 25 000 cells/mL A549 cell suspension, or 50 μL of 50 000 cells/mL HL-60 cell suspension. The MCF7, A375 and A549 cell plates were incubated for 24 hours to allow adherence of the cells to the plate surface, after which the growth medium is replaced with 100 μL medium containing compounds. […] The cell lines were treated with: (i) parthenolide (Sigma Aldrich) (positive control); (ii) growth medium and solvent (negative control to compensate for possible solvent effects); (iii) growth medium and experimental compound solutions. […] Blanks contained growth medium without cells. The treated plates were incubated for 48 hours.
(§13) To initiate the resazurin assay, 50 μL of sterile-filtered resazurin sodium salt (Sigma Aldrich) solution (0.01 % in PBS) was added and the plates incubated for 2 hours (MCF7, A375 and A549 cells) or 24 hours (HL-60 cells). Absorbance was measured at 570 and 600 nm using the Thermofisher Scientific GO Multiscan plate reader. Data analysis was performed for each biological replicate using SkanIt 4.0 Research Edition software. Further data analysis, calculations and IC50 determinations were identical to that of the antileishmanial and cytotoxicity assays.
(§14) For the final IC50 of each compound, the mean IC50 of the biological replicates were calculated with standard deviation (SD).

[8] = system: Clone 15 HL‐60 promyelocytic leukemia cells; assay: Anticancer assay (resazurin); format: cell-based, human; details: n = 3; read-out: Anticancer activity, IC50 ± SD, Clone 15 HL‐60
Description: as §10, §11, §12, §13, §14

`C[C@@H]1[C@H](O)[C@@H](C)/C=C/C=C/C=C/C=C/C=C/C=C/C=C/[C@H](O[C@@H]2O[C@H](C)[C@@H](O)[C@H](N)[C@@H]2O)C[C@@H]2O[C@](O)(C[C@@H](O)C[C@@H](O)[C@H](O)CC[C@@H](O)C[C@@H](O)CC(=O)O[C@H]1C)C[C@H](O)[C@H]2C(=O)O` [AMB, Amphotericin B, reference compound] gave an IC50 ([1]; Leishmania major, THP-1, L. major IR‐173) of 0.03 µM, an IC50 ([2]; Leishmania donovani, THP-1) of 0.04 µM and an IC50 ([3]; Leishmania donovani, THP-1) of 0.05 µM. The IC50 ([4]; Leishmania major) was 0.03 ± 0.006 µM, the IC50 ([5]; Leishmania donovani) was 0.02 µM and the IC50 (in vitro) was 57.8 ± 3.22 µM.

For `CC[C@H]1CN2CCc3cc(OC)c(OC)cc3[C@@H]2C[C@@H]1C[C@H]1NCCc2cc(OC)c(OC)cc21` [EM, emetine, reference compound], the IC50 (Vero cells) was 0.08 ± 0.009 µM.

In the case of `NC(=O)N/N=C/c1ccc([N+](=O)[O-])o1` [NFZ, nitrofurazone, reference compound], the “Specificity index SpI1” value ([1]; L. major IR‐173: IC50 promastigote/IC50 amastigote) is reported as 0.32, the “Selectivity index SI4” value ([2]; L. donovani 1S: IC50 THP‐1/IC50 amastigote) is reported as over 40 and the “Selectivity index SI3” value ([2]; L. donovani 1S: IC50 Vero/IC50 amastigote) is reported as over 40. For the same compound, the “Specificity index SpI2” value ([2]; L. donovani 1S: IC50 promastigote/IC50 amastigote) was 2.62, the IC50 ([2]; Leishmania donovani, THP-1) was 2.5 ± 0.4 µM and the “Selectivity index SI6” value ([3]; L. donovani 9515: IC50 THP‐1/IC50 amastigote) was over 20. For the same compound, the “Selectivity index SI5” value ([3]; L. donovani 9515: IC50 Vero/IC50 amastigote) was over 20, the “Specificity index SpI3” value ([3]; L. donovani 9515: IC50 promastigote/IC50 amastigote) was 0.37 and the IC50 ([4]; Leishmania major) was 1.85 ± 0.06 µM. For the same compound, the IC50 ([5]; Leishmania donovani) was 6.54 ± 0.93 µM, the IC50 ([6]; Leishmania donovani) was 1.85 ± 0.14 µM and the IC50 (in vitro; Vero cells (kidney epithelial)) was over 100 µM. It also gave an IC50 at 72 h [7] of over 100 µM.

With “(E)-4-Fluoro-N'-([5-nitrofuran-2-yl]methylene)-(1,1'-biphenyl)-4-sulfonohydrazide [2i]” the IC50 ([1]; L. major IR‐173) was over 10 µM, the IC50 [2] was over 10 µM and the IC50 [3] was over 10 µM. The IC50 [4] was over 10 µM, the IC50 [5] was 9.38 ± 0.82 µM and the IC50 [6] was over 10 µM. The IC50 (A375 melanoma cells) was over 10 µM, the IC50 [8] was over 10 µM and the IC50 (Vero cells) was 29.2 ± 5.41 µM.
